Source: patent publication US20250230193A1, “CYCLIC COMPOUND HAVING SELECTIVE KRAS INHIBITORY EFFECT ON HRAS AND NRAS” (CHUGAI SEIYAKU KABUSHIKI KAISHA, priority 2022, published 2025)

How the values were obtained:
[1] = biological target: GDP-bound HRAS wild-type protein (Homo sapiens, UniProt P01112); experiment: Binding to HRAS by surface plasmon resonance (SPR), Single Cycle Kinetics; details: KD ratio, GDP-bound HRAS wild-type vs GDP-bound KRAS wild-type, SPR
[2] = biological target: GDP-bound NRAS wild-type protein (Homo sapiens, UniProt P01111); experiment: Binding to NRAS by surface plasmon resonance (SPR), Single Cycle Kinetics; details: KD ratio, GDP-bound NRAS wild-type vs GDP-bound KRAS wild-type, SPR
GDP-bound NRAS wild-type protein, sequence (P01111 whole entry): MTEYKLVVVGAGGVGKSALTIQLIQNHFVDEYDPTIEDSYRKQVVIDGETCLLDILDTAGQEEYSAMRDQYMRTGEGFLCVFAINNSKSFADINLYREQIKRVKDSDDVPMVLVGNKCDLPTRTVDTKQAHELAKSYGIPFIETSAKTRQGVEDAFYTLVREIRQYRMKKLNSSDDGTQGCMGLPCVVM

GDP-bound HRAS wild-type protein, sequence (P01112 whole entry): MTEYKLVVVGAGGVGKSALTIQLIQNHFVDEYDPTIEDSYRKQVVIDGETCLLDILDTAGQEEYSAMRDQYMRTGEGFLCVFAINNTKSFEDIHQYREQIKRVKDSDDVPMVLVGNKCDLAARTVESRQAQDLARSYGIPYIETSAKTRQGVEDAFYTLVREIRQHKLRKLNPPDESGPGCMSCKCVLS

Row | Structure (SMILES) | HRAS/KRAS (ratio of KD value with respect to HRAS to KD value with respect to KRAS) [1] | NRAS/KRAS (ratio of KD value with respect to NRAS to KD value with respect to KRAS) [2]
1 | CCO[C@@H]1C[C@H]2C(=O)NC3(CCC3)C(=O)N(C)[C@@H](C3CCCC3)C(=O)N(C)[C@H](C(=O)N(C)C)CC(=O)N(C)[C@@H](CC)C(=O)N[C@@H]([C@@H](C)CC)C(=O)N(CC)CC(=O)N(C)[C@H]3C/C=C\CCN(C3=O)[C@@H](Cc3ccc(C(F)(F)F)cc3)C(=O)N(C)CC(=O)N[C@@H](CCc3cc(F)c(C(F)(F)F)c(F)c3)C(=O)N2C1 [PP1052] | A (a compound having 10 or more and less than 20 is denoted as A) | A (a compound having 10 or more and less than 20 is denoted as A)
2 | CCCN1CC(=O)N(C)[C@H]2C/C=C\CCN(C2=O)[C@@H](Cc2ccc(C(F)(F)F)cc2)C(=O)N(C)CC(=O)N[C@@H](CCc2cc(F)c(C(F)(F)F)c(F)c2)C(=O)N2C[C@H](OCC)C[C@H]2C(=O)NC2(CCC2)C(=O)N(C)[C@@H](C2CCCC2)C(=O)N(C)[C@H](C(=O)N(C)C)CC(=O)N(C)[C@@H](CC)C(=O)N[C@@H]([C@@H](C)CC)C1=O [PP1053] | A (a compound having 10 or more and less than 20 is denoted as A) | A (a compound having 10 or more and less than 20 is denoted as A)
3 | CCO[C@@H]1C[C@H]2C(=O)NC3(CCC3)C(=O)N(C)[C@@H](C3CCCC3)C(=O)N(C)[C@H](C(=O)N(C)C)CC(=O)N(C)[C@@H](CC)C(=O)N[C@@H]([C@@H](C)CC)C(=O)N(C)[C@@H](C)C(=O)N(C)[C@H]3C/C=C\CCN(C3=O)[C@@H](Cc3ccc(C(F)(F)F)cc3)C(=O)N(C)CC(=O)N[C@@H](CCc3cc(F)c(C(F)(F)F)c(F)c3)C(=O)N2C1 [PP1054] | B (a compound having 3 or more and less than 10 is denoted as B) | A (a compound having 10 or more and less than 20 is denoted as A)
4 | CCO[C@@H]1C[C@H]2C(=O)NC3(CCC3)C(=O)N(C)[C@@H](C3CCCC3)C(=O)N(C)[C@H](C(=O)N(C)C)CC(=O)N(C)[C@@H](CC)C(=O)N[C@@H]([C@@H](C)CC)C(=O)N3CCC[C@H]3C(=O)N(C)[C@H]3C/C=C\CCN(C3=O)[C@@H](Cc3ccc(C(F)(F)F)cc3)C(=O)N(C)CC(=O)N[C@@H](CCc3cc(F)c(C(F)(F)F)c(F)c3)C(=O)N2C1 [PP1056] | A (a compound having 10 or more and less than 20 is denoted as A) | A (a compound having 10 or more and less than 20 is denoted as A)
5 | CCO[C@@H]1C[C@H]2C(=O)NC3(CCC3)C(=O)N(C)[C@@H](C3CCCC3)C(=O)N(C)[C@H](C(=O)N(C)C)CC(=O)N(C)[C@@H](CC)C(=O)N[C@@H]([C@@H](C)CC)C(=O)N3C[C@H](OCC)C[C@H]3C(=O)N(C)[C@H]3C/C=C\CCN(C3=O)[C@@H](Cc3ccc(C(F)(F)F)cc3)C(=O)N(C)CC(=O)N[C@@H](CCc3cc(F)c(C(F)(F)F)c(F)c3)C(=O)N2C1 [PP1057] | B (a compound having 3 or more and less than 10 is denoted as B) | A (a compound having 10 or more and less than 20 is denoted as A)
6 | CCO[C@@H]1C[C@H]2C(=O)NC3(CCC3)C(=O)N(C)[C@@H](C3CCCC3)C(=O)N(C)[C@H](C(=O)N(C)C)CC(=O)N(C)[C@@H](CC)C(=O)N[C@@H]([C@@H](C)CC)C(=O)N3CCCC[C@H]3C(=O)N(C)[C@H]3C/C=C\CCN(C3=O)[C@@H](Cc3ccc(C(F)(F)F)cc3)C(=O)N(C)CC(=O)N[C@@H](CCc3cc(F)c(C(F)(F)F)c(F)c3)C(=O)N2C1 [PP1058] | B (a compound having 3 or more and less than 10 is denoted as B) | A (a compound having 10 or more and less than 20 is denoted as A)
7 | CCO[C@@H]1C[C@H]2C(=O)NC3(CCC3)C(=O)N(C)[C@@H](C3CCCC3)C(=O)N(C)[C@H](C(=O)N(C)C)CC(=O)N(C)[C@@H](CC)C(=O)N[C@@H]([C@@H](C)CC)C(=O)N3CCSC[C@H]3C(=O)N(C)[C@H]3C/C=C\CCN(C3=O)[C@@H](Cc3ccc(C(F)(F)F)cc3)C(=O)N(C)CC(=O)N[C@@H](CCc3cc(F)c(C(F)(F)F)c(F)c3)C(=O)N2C1 [PP1060] | A (a compound having 10 or more and less than 20 is denoted as A) | A (a compound having 10 or more and less than 20 is denoted as A)
8 | CCO[C@@H]1C[C@H]2C(=O)NC3(CCC3)C(=O)N(C)[C@@H](C3CCCC3)C(=O)N(C)[C@H](C(=O)N(C)C)CC(=O)N(C)[C@@H](CC)C(=O)N[C@@H]([C@@H](C)CC)C(=O)N3CC[C@@H]3C(=O)N(C)[C@H]3C/C=C\CCN(C3=O)[C@@H](Cc3ccc(C(F)(F)F)cc3)C(=O)N(C)CC(=O)N[C@@H](CCc3cc(F)c(C(F)(F)F)c(F)c3)C(=O)N2C1 [PP1064] | A (a compound having 10 or more and less than 20 is denoted as A) | A (a compound having 10 or more and less than 20 is denoted as A)
9 | CCO[C@@H]1C[C@H]2C(=O)NC3(CCC3)C(=O)N(C)[C@@H](C3CCCC3)C(=O)N(C)[C@H](C(=O)N(C)C)CC(=O)N(C)[C@@H](CC)C(=O)N[C@@H]([C@@H](C)CC)C(=O)N[C@@H](C)C(=O)N(C)[C@H]3C/C=C\CCN(C3=O)[C@@H](Cc3ccc(C(F)(F)F)cc3)C(=O)N(C)CC(=O)N[C@@H](CCc3cc(F)c(C(F)(F)F)c(F)c3)C(=O)N2C1 [PP1065] | B (a compound having 3 or more and less than 10 is denoted as B) | A (a compound having 10 or more and less than 20 is denoted as A)
10 | CC[C@H](C)[C@@H]1NC(=O)[C@H](CC(C)C)N(C)C(=O)C[C@@H](C(=O)N2CCOCC2)N(C)C(=O)[C@H](C2CCCC2)N(C)C(=O)C2(CCC2)NC(=O)[C@@H]2[C@@H](OC)CCN2C(=O)[C@H](CCc2cc(F)c(C(F)(F)F)c(F)c2)NC(=O)CN(C)C(=O)[C@H](Cc2ccc(C(F)(F)F)cc2)N2CCCCC[C@@H](C2=O)N(C)C(=O)CN(C)C1=O [PP1067] | B (a compound having 3 or more and less than 10 is denoted as B) | B (a compound having 3 or more and less than 10 is denoted as B)
11 | CCO[C@H]1CCN2C(=O)[C@H](CCc3cc(F)c(C(F)(F)F)c(F)c3)NC(=O)CN(C)C(=O)[C@H](Cc3ccc(C(F)(F)F)cc3)N3CCCCC[C@@H](C3=O)N(C)C(=O)CN(C)C(=O)[C@H]([C@@H](C)CC)NC(=O)[C@H](CC(C)C)N(C)C(=O)C[C@@H](C(=O)N3CCOCC3)N(C)C(=O)[C@H](C3CCCC3)N(C)C(=O)C3(CCC3)NC(=O)[C@H]12 [PP1068] | B (a compound having 3 or more and less than 10 is denoted as B) | A (a compound having 10 or more and less than 20 is denoted as A)
12 | CCCO[C@H]1CCN2C(=O)[C@H](CCc3cc(F)c(C(F)(F)F)c(F)c3)NC(=O)CN(C)C(=O)[C@H](Cc3ccc(C(F)(F)F)cc3)N3CCCCC[C@@H](C3=O)N(C)C(=O)CN(C)C(=O)[C@H]([C@@H](C)CC)NC(=O)[C@H](CC(C)C)N(C)C(=O)C[C@@H](C(=O)N3CCOCC3)N(C)C(=O)[C@H](C3CCCC3)N(C)C(=O)C3(CCC3)NC(=O)[C@H]12 [PP1069] | B (a compound having 3 or more and less than 10 is denoted as B) | A (a compound having 10 or more and less than 20 is denoted as A)
13 | CCCCO[C@H]1CCN2C(=O)[C@H](CCc3cc(F)c(C(F)(F)F)c(F)c3)NC(=O)CN(C)C(=O)[C@H](Cc3ccc(C(F)(F)F)cc3)N3CCCC[C@@H](C3=O)N(C)C(=O)CN(C)C(=O)[C@H]([C@@H](C)CC)NC(=O)[C@H](CC(C)C)N(C)C(=O)C[C@@H](C(=O)N3CCOCC3)N(C)C(=O)[C@H](C3CCCC3)N(C)C(=O)C3(CCC3)NC(=O)[C@H]12 [PP1071] | B (a compound having 3 or more and less than 10 is denoted as B) | B (a compound having 3 or more and less than 10 is denoted as B)
14 | CC[C@H](C)[C@@H]1NC(=O)[C@H](CC(C)C)N(C)C(=O)C[C@@H](C(=O)N2CCOCC2)N(C)C(=O)[C@H](C2CCCC2)N(C)C(=O)C2(CCC2)NC(=O)[C@@H]2[C@@H](OCC3CC3)CCN2C(=O)[C@H](CCc2cc(F)c(C(F)(F)F)c(F)c2)NC(=O)CN(C)C(=O)[C@H](Cc2ccc(C(F)(F)F)cc2)N2CCCC[C@@H](C2=O)N(C)C(=O)CN(C)C1=O [PP1072] | B (a compound having 3 or more and less than 10 is denoted as B) | B (a compound having 3 or more and less than 10 is denoted as B)
15 | CC[C@H](C)[C@@H]1NC(=O)[C@H](CC(C)C)N(C)C(=O)C[C@@H](C(=O)N2CCOCC2)N(C)C(=O)[C@H](C2CCCC2)N(C)C(=O)C2(CCC2)NC(=O)[C@@H]2[C@@H](OCC3CCCC3)CCN2C(=O)[C@H](CCc2cc(F)c(C(F)(F)F)c(F)c2)NC(=O)CN(C)C(=O)[C@H](Cc2ccc(C(F)(F)F)cc2)N2CCCC[C@@H](C2=O)N(C)C(=O)CN(C)C1=O [PP1073] | B (a compound having 3 or more and less than 10 is denoted as B) | B (a compound having 3 or more and less than 10 is denoted as B)
16 | CC[C@H](C)[C@@H]1NC(=O)[C@H](CC(C)C)N(C)C(=O)C[C@@H](C(=O)N2CCOCC2)N(C)C(=O)[C@H](C2CCCC2)N(C)C(=O)C2(CCC2)NC(=O)[C@@H]2[C@@H](OC)CCN2C(=O)[C@H](CCc2cc(F)c(C(F)(F)F)c(F)c2)NC(=O)CN(C)C(=O)[C@H](Cc2ccc(C(F)(F)F)cc2)N2CCCC[C@@H](C2=O)N(C)C(=O)CN(C)C1=O [PP1075] | B (a compound having 3 or more and less than 10 is denoted as B) | B (a compound having 3 or more and less than 10 is denoted as B)
